Source: PMC4946969 (ACS chemical biology, 2016)

Legend:
S. epidermidis AgrC-I [1] = target: T1, S. epidermidis AgrC-I (Staphylococcus epidermidis, UniProt Q5HMY3); assay type: cell-based; conditions: AgrC-I activation dose response in the presence of 50 nM S. epidermidis AIP-II
S. epidermidis AgrC-I [2] = target: T1, S. epidermidis AgrC-I; assay type: cell-based; conditions: for IC50: AgrC-I antagonism dose response, peptide alone, Group-I reporter strain, 24 h
S. epidermidis AgrC-III = assay: AgrC-III modulation, Group-III GFP reporter strain AH3409; assay type: cell-based, Staphylococcus epidermidis; conditions: initial single-concentration screen, 10 μM (Figures S-2, 2A)
S. epidermidis AgrC-II = assay: AgrC-II modulation, Group-II GFP reporter strain AH3567; assay type: cell-based, Staphylococcus epidermidis

For D-S-V-(C-A-S-A-F) [AIP-I Y7A], the EC50 (S. epidermidis AgrC-I [1]) was “Inactive ^c”, the IC50 (S. epidermidis AgrC-I [2]) was “Inactive ^c” and the “AgrC-III (Group-III) inhibition, single concentration” value (S. epidermidis AgrC-III) was ~ 50%. For the same substance, the “AgrC-II (Group-II) inhibition, single concentration” value (S. epidermidis AgrC-II; initial single-concentration screen, 10 μM (Figures S-1, 2A)) was ~ 50%.
In the case of D-S-V-(C-A-S-DY-F) [AIP-I D-Y7], the EC50 (S. epidermidis AgrC-I [1]) is reported as “Inactive ^c” and the IC50 (S. epidermidis AgrC-I [2]) is reported as “Inactive ^c”.
D-S-V-(C-A-S-Y-A) [AIP-I F8A] was tested, and the EC50 (S. epidermidis AgrC-I [1]) was “Inactive ^c” and the IC50 (S. epidermidis AgrC-I [2]) was “Inactive ^c”.
D-S-V-(C-DA-S-Y-F) [AIP-I D-A5] was tested, and the EC50 (S. epidermidis AgrC-I [1]) was “Inactive ^c” and the IC50 (S. epidermidis AgrC-I [2]) was “Inactive ^c”.
With D-S-V-(C-S-S-Y-F) [A5S-2] the “AgrC-I dose response behaviour” value (S. epidermidis AgrC-I [2]; two isolated AIP-I A5S products) was “very weak inhibition at low concentrations yet activation at higher concentrations”.
In the case of D-S-V-(DC-A-S-Y-F) [AIP-I D-C4], the EC50 (S. epidermidis AgrC-I [1]) is reported as “Inactive ^c” and the IC50 (S. epidermidis AgrC-I [2]) is reported as “Inactive ^c”.
In the case of “I-N-(C-A-F-L-L) [S. aureus AIP-III D4A, reference compound]”, the EC50 (S. epidermidis AgrC-I [1]) is reported as “Inactive ^c”, the IC50 (S. epidermidis AgrC-I [2]) is reported as “Inactive ^c” and the “Activity toward Group-II (AgrC-II) at lower concentration” value (S. epidermidis AgrC-II; 100 nM (lower-concentration screen 1 μM or 100 nM; Figure 2A)) is reported as “inhibiting exclusively Group-II”.
With “I-N-(C-D-F-L-L) [S. aureus AIP-III, reference compound]” the EC50 (S. epidermidis AgrC-I [1]) was “Inactive ^c” and the IC50 (S. epidermidis AgrC-I [2]) was “Inactive ^c”.
“Y-S-T-(C-D-F-I-M) [S. aureus AIP-I, reference compound]” was tested, and the EC50 (S. epidermidis AgrC-I [1]) was “Inactive ^c” and the IC50 (S. epidermidis AgrC-I [2]) was “Inactive ^c”.
